Experiments:
LSEC fenestrations = assay: SEM of LSEC fenestrations after drug treatments (Example 2, FIGS. 1-6); assay type: cell-based, mice
Procedure, shortened: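 Liver cells from young (3-4) and old (20-24 months) C57B16 mice, n=3 each, incubated 30 mins at 37° C, 5% CO2 in RPMI with or without drug; livers perfusion-fixed in 1% glutaraldehyde/4% para-formaldehyde. Blinded SEM at 10,000×; values are mean±SD of 8 images, 616-3312 fenestrations per treatment.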

fenestrations [1] = settings: young mice; cited from earlier work
[2] = tested on: isolated LSECs (liver sinusoidal endothelial cells); assay: SEM of fenestrations in isolated LSECs from young and old mice after 30 min drug treatment (second Example 7); assay type: cell-based; settings: for Diameter / Frequency / Porosity: 30 min
fenestrations [3] = settings: young (7 month) and old (24 month) mice; cited from earlier work

In the case of `COc1cc(CC(C)N)c(OC)cc1I` (stereo not shown) [DOI, 2,5-Dimethoxy-4-iodoamphetamine], the “change in fenestration porosity” value (LSEC fenestrations; old mice, Cytochalasin D 0.5 μg/ml, DOI 0.1 μg/ml, 7KC 9 μM, Amlodipine 20 ng/ml) is reported as “increased porosity”, the “change in fenestration frequency” value (LSEC fenestrations; old mice, Cytochalasin D 0.5 μg/ml, DOI 0.1 μg/ml, 7KC 9 μM, Bosentan 0.1 μM, Sildenafil 300 ng/ml, Amlodipine 20 ng/ml) is reported as “increased” and the “sieve plates and fenestration density on SEM images” value (LSEC fenestrations; young and old mice) is reported as “maintained sieve plates and increased fenestration density”. The “fenestration porosity and diameter (previously reported)” value (fenestrations [1]) was “increase fenestration porosity in young mice without any significant effects on fenestration diameter”, the “Change in Frequency, Old” value ([2]; old mice, 0.1 μg/ml) was “↑ (ns)” and the Diameter ([2]; old mice, 0.1 μg/ml) was 135.27 ± 29.71 nm. For the same compound, the Frequency ([2]; old mice, 0.1 μg/ml) was 3.06 ± 1.00 no/area, the Porosity ([2]; old mice, 0.1 μg/ml) was 4.44 ± 1.07 % and the Diameter ([2]; old mice, 1 μg/ml) was 155.28 ± 15.33 nm. For the same compound, the Frequency ([2]; old mice, 1 μg/ml) was 0.67 ± 0.31 no/area, the Porosity ([2]; old mice, 1 μg/ml) was 1.31 ± 0.47% and the “effect on porosity and fenestration frequency (summary in words)” value ([2]; young and old LSECs) was “LSECs from old mice only were responsive”. It also gave a Diameter ([2]; young mice, 0.1 μg/ml) of 133.57 ± 9.78 nm, a Frequency ([2]; young mice, 0.1 μg/ml) of 3.40 ± 1.56 no/area and a Porosity ([2]; young mice, 0.1 μg/ml) of 4.91 ± 2.02%. The Diameter ([2]; young mice, 1 μg/ml) was 135.64 ± 21.21 nm, the Frequency ([2]; young mice, 1 μg/ml) was 0.83 ± 0.75 no/area and the Porosity ([2]; young mice, 1 μg/ml) was 1.45 ± 1.27%. The “fenestrations after in vivo administration” value (fenestrations [3]) was “increased fenestrations only in young (7 month) but not old (24 month) mice”.
